Laboratory results as given in paper PMC8682774 (2021).

What was measured:
[1] = system: 22AG (DNA, G4) AGGGTTAGGGTTAGGGTTAGGG; assay: G4-FID; conditions: 100 mM KCl, 10 mM lithium cacodylate pH 7.3, thiazole orange 0.5 µM displaced
[2] = system: 21CTA (DNA, G4) GGGCTAGGGCTAGGGCTAGGG; assay: G4-FID; conditions: 100 mM KCl, 10 mM lithium cacodylate pH 7.3, thiazole orange 0.5 µM displaced
[3] = system: c-Myc22 (G14T-G23T) (DNA, G4) TGAGGGTGGGTAGGGTGGGTAA; assay: G4-FID; conditions: 100 mM KCl, 10 mM lithium cacodylate pH 7.3, thiazole orange 0.5 µM displaced
[4] = system: cKit2 (DNA, G4) GGGCGGGCGCGAGGGAGGGG; assay: G4-FID; conditions: 100 mM KCl, 10 mM lithium cacodylate pH 7.3, thiazole orange 0.5 µM displaced
[5] = system: CEB25wt (DNA, G4) AAGGGTGGGTGTAAGTGTGGGTGGGT; assay: G4-FID; conditions: 100 mM KCl, 10 mM lithium cacodylate pH 7.3, thiazole orange 0.5 µM displaced
[6] = system: CEB25L111T (DNA, G4) AAGGGTGGGTGGGTGGGT; assay: G4-FID; conditions: 100 mM KCl, 10 mM lithium cacodylate pH 7.3, thiazole orange 0.5 µM displaced
[7] = system: TERRA (RNA, G4) AGGGUUAGGGUUAGGGUUAGGG; assay: G4-FID; conditions: 100 mM KCl, 10 mM lithium cacodylate pH 7.3, thiazole orange 0.5 µM displaced
[8] = system: NRAS (RNA, G4) GGGAGGGGCGGGUCUGGG; assay: G4-FID; conditions: 100 mM KCl, 10 mM lithium cacodylate pH 7.3, thiazole orange 0.5 µM displaced
[9] = system: F21T (DNA, G4) GGGTTAGGGTTAGGGTTAGGG; assay: FRET melting; conditions: 10 mM KCl, 90 mM LiCl; 10 mM lithium cacodylate pH 7.2; 0.2 µM G4; 1 µM ligand; no competitor
[10] = system: Biot-hTelo (DNA, G4) GGTTAGGGTTAGGGTTAGGGTTAGGGTTAGG; assay: adapted ELISA, anti-BrdU antibody; conditions: 100 mM KCl; 10 mM Tris-HCl pH 7.4; 250 nM ligand, oligonucleotide varied; apparent
[11] = system: Biot-cMyc (DNA, G4) TGAGGGTGGGTAGGGTGGGTAA; assay: adapted ELISA, anti-BrdU antibody; conditions: 100 mM KCl; 10 mM Tris-HCl pH 7.4; 250 nM ligand, oligonucleotide varied; apparent
[12] = system: Biot-TERRA (RNA, G4) UUAGGGUUAGGGUUAGGGUUAGGG; assay: adapted ELISA, anti-BrdU antibody; conditions: 100 mM KCl; 10 mM Tris-HCl pH 7.4; 250 nM ligand, oligonucleotide varied; apparent

Row | DC50 ([1]; 0.25 µM G4) [nM] | DC50 ([2]; 0.25 µM G4) [nM] | DC50 ([3]; 0.25 µM G4) [nM] | DC50 ([4]; 0.25 µM G4) [nM] | DC50 ([5]; 0.25 µM G4) [nM] | DC50 ([6]; 0.25 µM G4) [nM] | DC50 ([7]; 0.25 µM G4) [µM] | DC50 ([8]; 0.25 µM G4) [µM] | binding [9] | Kd [10] [nM] | Kd [11] [nM] | Kd [12] [nM] | DC50 ([1]; 0.25 µM DNA) [nM] | DC50 ([2]; 0.25 µM DNA) [nM] | DC50 ([3]; 0.25 µM DNA) [nM] | DC50 ([4]; 0.25 µM DNA) [nM] | DC50 ([5]; 0.25 µM DNA) [nM] | DC50 ([6]; 0.25 µM DNA) [nM] | DC50 ([7]; 0.25 µM RNA, decimal comma) | DC50 ([8]; 0.25 µM RNA, decimal comma) | SMILES
1 | 370 | 300 | 310 | 200 | 400 | 230 | 0.31 | 0.21 | yes | – | – | – | – | – | – | – | – | – | – | – | C#CCCCC(=O)NCCCCNc1cc(C(=O)Nc2cc3ccccc3[n+](C)c2)nc(C(=O)Nc2cc3ccccc3[n+](C)c2)c1
2 | 800 | 1100 | 520 | 380 | 760 | 480 | 0.42 | 0.32 | – | 9.6 ± 1.3 | 3.5 ± 0.9 | 29.6 ± 7.8 | – | – | – | – | – | – | – | – | C[n+]1cc(NC(=O)c2cc(NCCCCNC(=O)CCCc3cn(CO[C@H]4C[C@H](n5cc(Br)c(=O)[nH]c5=O)O[C@@H]4CO)nn3)cc(C(=O)Nc3cc4ccccc4[n+](C)c3)n2)cc2ccccc21
3 | – | – | – | – | – | – | – | – | – | – | – | – | 340 | 180 | 150 | 180 | 290 | 260 | 0,25 µM | 0,20 µM | C[n+]1cc(NC(=O)c2cccc(C(=O)Nc3cc4ccccc4[n+](C)c3)n2)cc2ccccc21
